Patent US20170290801A1 (Hill's Pet Nutrition, Inc., priority 2009, published 2017)

Test: in vivo
Design: species or system dogs
Conditions: dog; for AUC0-infinity / AUC(0-inf): po; for AUC(0-inf): AUC0-infinity
Experimental: The control food without ALA is fed throughout the study period. The analytical results of the foods fed in this study are in Table 1. A three period Latin square design was used to create a 3×3 factorial arrangement of treatments with dogs assigned to a group following a planned treatment assignment. […] Pharmacokinetic parameters are calculated using a non-compartmental model and analyzed using non-parametric tests of WinNonlin 4.1 in SAS v9.]. There was a significant effect of dose for all delivery methods (P<0.05). […]

elimination half life, co-manufactured food compared with capsule: greater
maximum serum concentrations, effect of delivery method: lower maximum serum concentrations
total area under the curve, co-manufactured food compared with capsule: greater
AUC0-infinity (12.5 mg/kg): 92215 ng·min/mL
AUC(0-inf) (12.5 mg/kg): 1240 ng·h/mL
AUC0-infinity (25 mg/kg): 227304 ng·min/mL
AUC(0-inf) (25 mg/kg): 3580 ng·h/mL
SMILES: O=C(O)CCCCC1CCSS1 (racemic) [lipoic acid, dl-alpha-lipoic acid]
